{
  "source": "paper PMC11206507",
  "about": "“Unraveling the Impact of Six Pentacyclic Triterpenes Regulating Metabolic Pathways on Lung Carcinoma Cells” (Pharmaceuticals, 2024)",
  "test_system": "A549 cells",
  "experiment": "Total ROS production assay (DCF)",
  "format": "cell-based, human",
  "conditions": "A549, IC25 (CisPt 25 μM), 24 h",
  "method": "The production of total ROS was determined using the 2′,7′-dichlorodihydrofluorescein diacetate (DCF) fluorescent dye. A549 cells were seeded in a concentration of 1 × 10^5 cells/mL into black 96-well plates with a clear bottom. After 24 h, the cells were incubated with the triterpenes (IC25) and controls for 24 h. Then, 50 μL of DCF (10 μM) was added to each well and they were incubated for 1 h at room temperature. Then, the fluorescence of each well was measured (Ex/Em = 485/530 nm) in the Tecan® M200 plate reader.\nThis experiment was performed in triplicate. All data were expressed by plotting the values as an average of three measurements for each treatment condition as the mean ± SD and analyzed with the software GraphPad Prism 9. Statistical analysis was performed using one-way analysis of variance (ANOVA) to compare the mean value of each treated type of cells versus the control (untreated cells). The statistical significance defined by the software for p values was **** < 0.0001, *** from 0.001 to 0.0001, ** from 0.001 to 0.01, * from 0.01 to 0.05, and non-significant (ns) ≥ 0.05.",
  "data": [
    {"smiles": "C=C(C)[C@@H]1CC[C@]2(C(=O)O)CC[C@]3(C)[C@H](CC[C@@H]4[C@@]5(C)CC[C@H](O)C(C)(C)[C@@H]5CC[C@]43C)[C@@H]12", "note": "[BeA, betulinic acid]", "values": [
      {"measurement": "Total ROS production (in words)", "result": "highest increase in total ROS"}
    ]}
  ]
}
